5 compounds from ChEMBL document CHEMBL1130541, “Investigation into the preferred conformation of gabapentin for interaction with its binding site on the 2 subunit of a calcium channel” (Bioorg Med Chem Lett, 1997) can be followed below.

For assay [1], the species on record is Rattus norvegicus. In words: Percent inhibition of binding to alpha2-delta subunit of rat calcium channel at 10 uM.
Assay [2] is described as follows: Binding affinity against alpha2-delta subunit of rat calcium channel.

Take `C[C@@H]1C[C@H](C)C[C@](CN)(CC(=O)O)C1`: the inhibition in assay [1] was 38%.
As for `C[C@H]1CC[C@@](CN)(CC(=O)O)CC1`, in assay [2], the IC50 was 420 nM.
Same read-out and setting: the figure for `NCC1(CC(=O)O)CCCCC1` [GABAPENTIN] is […]; for `C[C@@H]1C[C@H](C)C[C@@](CN)(CC(=O)O)C1` it is 143 nM.
For `C[C@H]1CC[C@](CN)(CC(=O)O)CC1`, the inhibition in assay [1] is 17%.

For orientation: inhibition means the drop in the measured response relative to a control, in per cent. A word on the IC50: it is the midpoint of a concentration-inhibition curve.
